Converted amounts (≈) assume the structure as drawn.
Key:
physchem [1] = conditions: Residual solubility L-Methionine
Procedure: The amount of product in the fermentation medium or in the different downstream process fluxes such as supernatant, permeate or mother liquors of crystallization can be determined using a number of methods known in the art, for example, high performance liquid chromatography (HPLC) or gas chromatography (GC). For example the quantity of methionine obtained in the medium is measured by HPLC after OPA/FMOC derivatization using L-methionine (Fluka, Ref 64319) as a standard.
Different solvents were assayed on the fermentation concentrated supernatant issued from step ii) with the same ratio of 70% (solvent/(methionine containing fraction+solvent), in weight).

physchem [2] = assay: physchem
Procedure: The methionine solubility at 35° C. is approximately 70 g/L. If the solution is concentrated to approximately 250 g/L, under a vacuum ensuring a temperature of 35° C., the solid methionine recovery yield is >70%. Under these conditions, and by virtue of the removal of the soluble impurities, the solid methionine crystallizes in the form of spongy spheres which are easy to separate from the mother liquors.
The fermentation supernatant issued from step ii) was concentrated to approximately 250 g·L^−1 and ethanol has been added at different proportions 0%, 30% and 70% (corresponding to the ratio solvent/(methionine containing fraction+solvent) in weight). The theoretical yield of recovery has been determined in function of ethanol content.

- solubility (physchem [1]; concentrated fermentation supernatant with added solvent, 4 °C, aqueous with cosolvent or surfactant or cyclodextrin, Ethanol, ratio 70% by weight): 4000 to 5000 µg/mL
- solubility (physchem [1]; concentrated fermentation supernatant with added solvent, 4 °C, aqueous with cosolvent or surfactant or cyclodextrin, Isopropanol, ratio 70% by weight): 4000 to 5000 µg/mL
- solubility (physchem [1]; concentrated fermentation supernatant with added solvent, 4 °C, aqueous with cosolvent or surfactant or cyclodextrin, Methanol, ratio 70% by weight): 5000 to 6000 µg/mL
- solubility (physchem [1]; concentrated fermentation supernatant with added solvent, aqueous with cosolvent or surfactant or cyclodextrin, 2-Butanone, ratio 70% by weight, room temperature): > 15000 µg/mL
- solubility (physchem [1]; concentrated fermentation supernatant with added solvent, aqueous with cosolvent or surfactant or cyclodextrin, Acetonitrile, ratio 70% by weight, room temperature): 5500 to 6500 µg/mL
- solubility (physchem [1]; concentrated fermentation supernatant with added solvent, aqueous with cosolvent or surfactant or cyclodextrin, Ethanol, ratio 70% by weight, room temperature): 5000 to 6000 µg/mL
- solubility (physchem [1]; concentrated fermentation supernatant with added solvent, aqueous with cosolvent or surfactant or cyclodextrin, Isopropanol, ratio 70% by weight, room temperature): 5000 to 6000 µg/mL
- solubility (physchem [1]; concentrated fermentation supernatant with added solvent, aqueous with cosolvent or surfactant or cyclodextrin, Methanol, ratio 70% by weight, room temperature): 7000 to 8000 µg/mL
- solubility (physchem [1]; concentrated fermentation supernatant, plasma or biological fluid, no solvent (Reference), room temperature): 65000 µg/mL (≈ 436 mM)
- solubility (physchem [2]; 35 °C): ~70000 µg/mL (≈ 469 mM)
- solubility (physchem [2]; 37 °C): ~70000 µg/mL (≈ 469 mM)
SMILES: CSCC[C@H](N)C(=O)O [L-methionine]
